The target of this test is T1, E234G HYPE (Homo sapiens, UniProt Q9BVA6, E234G).
T1 construct: Δ102 (aa 103-458) HYPE constructs (WT, E234G, and E234G/H363A); His6-SUMO (cleaved yes); made in house; host or cells: E. coli BL21-DE3-RILP
T1 sequence (Q9BVA6 103-458 E234G): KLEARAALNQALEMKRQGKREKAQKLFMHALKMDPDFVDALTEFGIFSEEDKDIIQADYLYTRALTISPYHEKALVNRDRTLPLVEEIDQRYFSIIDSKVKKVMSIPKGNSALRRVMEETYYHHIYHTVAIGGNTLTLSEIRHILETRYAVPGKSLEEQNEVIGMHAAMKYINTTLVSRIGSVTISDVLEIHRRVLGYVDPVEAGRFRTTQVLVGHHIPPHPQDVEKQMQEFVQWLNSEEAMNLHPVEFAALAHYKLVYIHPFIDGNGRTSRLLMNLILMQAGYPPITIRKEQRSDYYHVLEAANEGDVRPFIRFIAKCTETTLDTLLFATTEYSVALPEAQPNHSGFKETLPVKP
Nature of the test: Fluorescence polarization (FP) microplate autoAMPylation assay with Fl-ATP, E234G HYPE inhibitor HTS, cherrypick validation and concentration-response. Type of test: biochemical. Particulars: for inhibition at 10 µM: 10 μM compound. How it is done:
Buffer optimization experiments were performed by incubating 0.4 μM of Δ102 HYPE enzyme with 25 nM Fl-ATP (final concentrations) in HTS buffer (50 mM HEPES (pH 7.5), 1 mM MgCl2, 0.1% Triton X-100, 1% DMSO) in the dark at room temperature for 10 min in 384-well black bottom, black wall microplates (20 μL reaction volume). Where specified, 1 mM MgCl2 was replaced with an equivalent concentration of MnCl2, or 0.1% Triton X-100 was replaced with 0.05% or 0.01% Trion X-100. Microplates were snap centrifuged at 1000 g for 10 sec. Microplates were loaded onto a BioTek BioStack NEO2 plate-reader and assessed for fluorescence polarization with 485/530 nm filters and a 55/50 gain adjustment.
A Multidrop 384 reagent dispenser (ThermoFisher) was used to add 0.4 μM HYPE, then 25 nM Fl-ATP (final concentrations) to 384-well black/black microplates (20 μL reaction volume). Both enzyme and nucleotide were dissolved in HTS Buffer. AMPylation Reactions were incubated for 10 min at room temperature in the dark. Microplates were snap centrifuged at 1000 g for 10 sec, then transferred to BioTek BioStack NEO2 plate-reader. Reactions were assessed for fluorescence polarization with 485/530 nm filters and a 55/50 gain adjustment. Z′, S/B, and CV values were determined by fitting the data to Eq. 1, 2, and 3, respectively,
An Echo Liquid Handler (Labcyte) was used to transfer 200 nL of DMSO-dissolved compounds via acoustic-coupled ejection from 10 mM source plates into 384-well black, flat-bottom, black-walled microplates, for a final compound concentration of 10 μM. Compounds were sourced from the following libraries: DIVERset (Chembridge), CNS-Set (Chembridge). The compounds went into columns 3-22 of each plate, while columns 1, 2, 23, and 24 were reserved for equivalent volume of 100% DMSO controls.
A Multidrop 384 reagent dispenser was used to pipette 0.4 μM of WT HYPE (final concentration) dissolved in HTS Buffer into columns 1-22 of the activator plates, and columns 1 and 2 of the inhibitor plates as positive controls. 0.4 μM of E234G HYPE was similarly added to columns 3-24 of the inhibitor plates, and columns 23 and 24 of the […]. Enzymes were then incubated with either compounds or DMSO for 10 min at room temperature.
A Multidrop 384 reagent dispenser was used to pipette 25 nM of Fl-ATP (final concentration) into all wells of each plate, giving a final reaction volume of 20 μL. Plates were then incubated for 10 min at room temperature in the dark, followed by a snap centrifugation at 1000 g for 10 sec. Microplates were loaded onto BioTek BioStack stacker and read in succession for fluorescence polarization with 485/530 nm filters and a 55/50 gain adjustment. Fluorescence polarization values were converted to fractional activation (FA) or fractional inhibition FI) values according to Eq. (3) or (4), respectively,
[formula] [formula] • where μp and μn are the means of the positive (E234G HYPE) and negative (WT HYPE) controls, respectively; and x is the measured value of fluorescence polarization.
Microplate “cherrypicking” validations were performed as described above.
A Multidrop 384 reagent dispenser was used to pipette 0.4 μM of WT or E234G HYPE (final concentrations) dissolved in HTS Buffer into designated microplate wells. 10 μM of DMSO-dissolved compounds (final concentrations) or equivalent volume of 100% DMSO were manually pipetted into their specified wells. Enzymes were incubated with compounds or DMSO for 10 min at room temperature. Reagent dispenser was then used to pipette 25 nM of Fl-ATP (final concentration) into each well, followed by a 10 min incubation at room temperature in the dark. Plates were snap centrifuged at 1000 g for 10 sec, then transferred to BioTek BioStack NEO2 plate-reader. Reactions were assessed for fluorescence polarization with 485/530 nm filters and a 55/50 gain adjustment. EC50 and IC50 values were determined by fitting polarization values to Eq. (5) and (6), respectively, […]

The results in this text go back to patent US20240382498A1, “NOVEL INHIBITOR OF HYPE-MEDIATED AMPYLATION” (Purdue Research Foundation, priority 2023, published 2024).

Read-outs that look alike come from different tables or passages of the source.

As for `c1cn(-c2ccc(-c3nnc(-c4ccoc4)o3)cn2)cn1` [Compound I2.10], the “AMPylation at in vitro saturation point of inhibition” value (50 μM) is listed as “zero percent AMPylation”. Further, the “IC50 (concentration-response of E234G HYPE inhibition)” value (FP microplate, inhibitors 0 to 200 μM) was “low micromolar”. Moreover, the inhibition at 10 µM is, setting by setting: (cherrypick validation, same FP assay, read-out: % Inh. Cherry-pick) 29.7%; (initial HTS, normalized to WT and E234G HYPE DMSO controls, read-out: % Inh. HTS) 24.5%. Besides, the “Mean % Inh.” value (mean of HTS and cherrypick) worked out at 27.1%.
